Source: patent US20260001884A1, “Heterocycle compounds for the treatment of cancer” (Hoffmann-La Roche Inc., priority 2022, published 2026)

Tests used:
recombinant CD73 protein = recombinant CD73 protein (Homo sapiens (Human), UniProt P21589); experiment: CD73 Biochemical Assay; conditions: 0.2 nM recombinant CD73, 10 μM AMP working solution, Malachite Green readout; read-out: Enzymatic IC50 against CD73
Protocol: Compound serial dilution (1:3) was prepared with Echo 555 liquid handler (Labcyte) into the corresponding wells of a 384-well plate. 25 μL of enzyme working solution [0.2 nM recombinant CD73 protein (purchased from R&D Systems, Inc), 25 mM Tris-HCl pH 7.5, 5 mM MgCl2, 0.01% BSA, 0.01% Brij-35 non-ionic detergent] was added to the assay plate and incubated with compounds for 15 minutes at room temperature. After adding 25 μL of AMP working solution (10 μM AMP, 25 mM Tris-HCl pH 7.5, 5 mM MgCl2, 0.01% BSA, 0.01% Brij-35) into the assay plate, the reaction was incubated for 10 min at room temperature. 10 uL of Malachite Green A solution was then added to each well for 10 minutes incubation. 10 uL of Malachite B solution was added to each well and then incubated for another 30 minutes. Finally the absorbance value was read on the Envision plate reader (PerkinElmer) at […]. Calculation percentage inhibition by using equation {% inhibition=100×[I−(X−MIN)/(MAX−MIN)]} where X equals to the well signal, Max equals signal of DMSO control and MIN equals signal of no cell control.

CD73 (MDA-MB-231 cells) = CD73 (MDA-MB-231 cells) (Homo sapiens (Human), UniProt P21589); experiment: CD73 Cellular Assay; type: cell-based; conditions: 10 μM AMP working solution, 45 min at 37° C., Malachite Green readout, read-out: Cellular IC50 against CD73
Protocol: Compound serial dilution (1:3) was prepared with Echo 555 liquid handler (Labcyte) into the corresponding wells of a 384-well plate. 40 μL of MDA-MB-231 cells (ATCC, HTB-26, breast cancer, final concentration at 20,000 cells/mL) suspended in assay buffer (25 mM Tris-HCl pH 7.5, 5 mM MgCl2, 0.01% BSA, 0.01% Brij-35) were added into the corresponding wells of the plate. After incubating with compounds for 30 minutes, 40 μL of AMP working solution (10 μM AMP, 25 mM Tris-HCl pH 7.5, 5 mM MgCl2, 0.01% BSA, 0.01% Brij-35) was added into each well in the assay plate. The assay plate was then incubated in a 5% CO2 incubator (Thermo Fisher Scientific) at 37° C. for 45 min. After the reaction was completed, 50 μL of the supernatants was collected and transferred into a new 384 well plate. 10 μL of Malachite A was added to each well in the assay plate and incubated for 10 minutes. 10u L of Malachite B was then added to each corresponding well of the plate and incubated for 30 minutes. Finally the absorbance value was read on the Envision plate reader at […]. Calculation percentage inhibition by using equation {% inhibition=100×[I−(X−MIN)/(MAX−MIN)]} where X equals to the well signal, Max equals signal of DMSO control and MIN equals signal of no cell control.

Sequence of recombinant CD73 protein (P21589 27-574, species assumed): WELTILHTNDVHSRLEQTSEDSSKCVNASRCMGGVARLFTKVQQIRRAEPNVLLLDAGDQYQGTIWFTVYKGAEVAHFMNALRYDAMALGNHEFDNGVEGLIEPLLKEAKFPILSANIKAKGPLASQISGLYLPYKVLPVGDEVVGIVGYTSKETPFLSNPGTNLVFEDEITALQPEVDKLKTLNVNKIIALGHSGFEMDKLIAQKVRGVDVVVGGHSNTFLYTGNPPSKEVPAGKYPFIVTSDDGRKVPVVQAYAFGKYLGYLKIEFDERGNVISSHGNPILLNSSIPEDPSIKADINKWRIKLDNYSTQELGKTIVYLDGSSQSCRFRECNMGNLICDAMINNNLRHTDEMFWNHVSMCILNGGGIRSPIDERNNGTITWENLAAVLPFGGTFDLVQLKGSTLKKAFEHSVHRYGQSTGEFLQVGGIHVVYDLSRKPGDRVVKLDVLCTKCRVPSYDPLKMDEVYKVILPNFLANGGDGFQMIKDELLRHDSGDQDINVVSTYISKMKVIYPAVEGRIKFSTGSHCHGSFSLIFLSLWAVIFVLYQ
Sequence of CD73 (MDA-MB-231 cells) (P21589 27-574): as the sequence (P21589 27-574, species assumed) above

**Q.** What does the source list for Cn1c(=O)[nH]c2nnc(-c3c[nH]c(=O)[nH]c3=O)cc21 [Example 1, 5-(5-methyl-6-oxo-7H-imidazo[4,5-c]pyridazin-3-yl)-1H-pyrimidine-2,4-dione]?
**A.** IC50 (recombinant CD73 protein): 622 nM; IC50 (CD73 (MDA-MB-231 cells)): 74 nM

**Q.** Which IC50 (recombinant CD73 protein) does the source give for Cn1c(=O)n(C)c2nnc(-c3c[nH]c(=O)[nH]c3=O)cc21 [Example 2, 5-(5,7-dimethyl-6-oxo-imidazo[4,5-c]pyridazin-3-yl)-1H-pyrimidine-2,4-dione] here?
**A.** Its IC50 is 254 nM.

**Q.** What about the IC50 (CD73 (MDA-MB-231 cells)) of the same compound?
**A.** Its IC50 is 156 nM.

**Q.** How did the IC50 (recombinant CD73 protein) turn out when CC(C)n1c(=O)n(C)c2nnc(-c3c[nH]c(=O)[nH]c3=O)cc21 [Example 3, 5-(5-isopropyl-7-methyl-6-oxo-imidazo[4.5-]pyridazin-3-yl)-1H-pyrimidine-2,4-dione] was run?
**A.** Its IC50 is 267 nM.

**Q.** What about the IC50 (CD73 (MDA-MB-231 cells)) of the same compound?
**A.** The IC50 was 27 nM.

**Q.** Which IC50 (CD73 (MDA-MB-231 cells)) does the source give for Cn1c(=O)n(Cc2ccccc2)c2cc(-c3c[nH]c(=O)[nH]c3=O)nnc21 [Example 4, 5-(5-benzyl-7-methyl-6-oxo-imidazo[4,5-c]pyridazin-3-yl)-1H-pyrimidine-2,4-dione] here?
**A.** Its IC50 is 107 nM.
